These results are taken from publication PMC9424235, “Small molecule-mediated allosteric activation of the base excision repair enzyme 8-oxoguanine DNA glycosylase and its impact on mitochondrial function” (Scientific Reports, 2022).

The subject of one data set is OGG1. Further details: method as in PMID 12592398. As to conditions: cited from earlier work.
The target of a further data set is human OGG1 (Homo sapiens, UniProt O15527). Kind of data set: Fluorescent steady-state kinetic assay of OGG1 activation (initial rates; screening concentration response).
Data set [1] concerns A549 cells. Kind of data set: Measurement of energy metabolites (ATP, ADP). The format is cell-based, human.
The test system of data set [2] is A549 cells. Kind of data set: DNA ligase III (LIG3) protein content by imaging. The format is cell-based, human. The following applies: 48 h of PQ at either 0.6 or 1 mM.
The subject of data set [3] is A549 cells. Kind of data set: TOM20 immunofluorescence. As to conditions: 0.3 mM PQ, 48 h. The format is cell-based, human.
Data set [4] relates to A549 cells. Kind of data set: Nuclear DNA damage by γ-H2AX staining. The format is cell-based, human.
For data set [5], the system named is A549 cells. Kind of data set: ROS production with CM-H2DCFDA (DCF) imaging. The format is cell-based, human. As to conditions: for EC50: Homo sapiens.
Data set [6] concerns A549 cells. Kind of data set: OGG1 content by imaging. The format is cell-based, human. The following applies: 0.6 mM PQ, N = 1 in triplicate.
The test system of data set [7] is A549 cells. Kind of data set: DRP1 content by quantitative imaging. The format is cell-based, human. As to conditions: 0.6 mM PQ, 48 h.
Data set [8] has as its system A549 cells. Kind of data set: Mitochondrial membrane integrity (MitoTracker orange texture analysis). The format is cell-based, human. As to conditions: 24 h.
Data set [9] deals with A549 cells. Kind of data set: mtDNA damage by long/short chain PCR. The format is cell-based, human. The following applies: PQ 0.3–3 mM.
In data set [10] the test system is A549 cells. Kind of data set: Mitochondrial ROS with MitoSOX. The format is cell-based, human.
Where [11] appears, read: initial rate analysis, random mechanism.

“And” between values parts separate entries of the source, which are not always exact repeats. Identical values can stand only once.

As usually defined, the Km is the substrate concentration at which the rate is half of its maximum. Broadly, the kcat is the maximal rate divided by the concentration of active sites. As usually defined, the EC50 is the concentration needed to bring the measured effect to its halfway point.

human OGG1, sequence (O15527 12-345): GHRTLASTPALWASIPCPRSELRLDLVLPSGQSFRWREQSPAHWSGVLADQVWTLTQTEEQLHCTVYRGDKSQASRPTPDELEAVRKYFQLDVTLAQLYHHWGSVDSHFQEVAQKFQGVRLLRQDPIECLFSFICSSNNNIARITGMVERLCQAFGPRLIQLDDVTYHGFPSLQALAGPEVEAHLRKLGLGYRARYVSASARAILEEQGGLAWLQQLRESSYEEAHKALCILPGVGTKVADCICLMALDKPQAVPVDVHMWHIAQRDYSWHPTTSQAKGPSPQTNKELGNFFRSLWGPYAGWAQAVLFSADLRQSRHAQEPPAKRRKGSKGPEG

For `Nc1nc2nc(N)[nH]c2c(=O)[nH]1` [Compound 8-aminoGua, 8-aminoguanine], in the data set on OGG1, the “acceleration / activation level of AP lyase activity” value is listed as > 35 fold and the substrate turnover was 72%.
For `Nc1nc2cc[nH]c2c(=O)[nH]1` [Compound 9-deazaGua, 9-deazaguanine], the “β value as percent of catalytic activity of OGG1 in the presence of 8-bromoGua” value at human OGG1 came to 50%. The “OGG1 initial rate relative to that in the presence of 200 μM 8-bromoGua” value at human OGG1 (200 μM activator, substrate 80 nM) is listed as ~ 25%. Further, the Km at human OGG1 (initial rate analysis with activator and Substrate A varied, OGG1 10 nM) amounted to 0.015 ± 0.003 µM. Moreover, on human OGG1 (initial rate analysis with activator and Substrate A varied, OGG1 10 nM, random mechanism fit), the kcat was 0.006 ± 0.001 s⁻¹ and 0.006 ± 1 s⁻¹. On human OGG1 (setting [11]), the “α (coefficient of interaction between activator and substrate)” value is 1.3 ± 0.4; the “β (factor of kcat activation)” value was determined as 18 ± 3.
Turning to `C[n+]1ccc(-c2cc[n+](C)cc2)cc1.[Cl-].[Cl-]` [Paraquat, N, N′-dimethyl-4,4′-bipyridinium dichloride], the ATP levels with A549 cells [1] (24 h with PQ, concentrations not given at the place, listed as PQ) was 3.13 ± 0.14 μmol/gm protein and 2.49 ± 0.67 μmol/gm protein and 1.99 ± 0.45 μmol/gm protein. For the same molecule, the ADP levels with A549 cells [1] (PQ 3 mM, 48 h, time-course experiment) is 68.69 ± 1.47 μmol/gm protein. The “ATP Average” value was 2.56 µmols/g protein and 2.83 µmols/g protein and 1.89 µmols/g protein in the data set on A549 cells [1] (paraquat 0.3 mM alone, 48 h); 1.43 µmols/g protein and 1.67 µmols/g protein and 1.19 µmols/g protein in the data set with A549 cells [1] (paraquat 0.6 mM alone, 48 h); 1.47 µmols/g protein and 0.92 µmols/g protein and 1.02 µmols/g protein in the data set on A549 cells [1] (paraquat 1 mM alone, 48 h); 0.96 µmols/g protein and 0.61 µmols/g protein and 0.63 µmols/g protein in the data set with A549 cells [1] (paraquat 3 mM alone, 48 h); 0.63 ± 0.05 µmols/g protein and 0.96 ± 0.10 µmols/g protein and 0.61 ± 0.09 µmols/g protein in the data set on A549 cells [1] (paraquat 3 mM alone, 48 h, listed as PQ). The “ADP Average” value in the data set on A549 cells [1] (paraquat 3 mM alone, 48 h) was 40.48 µmols/g protein and 41.33 µmols/g protein and 53.45 µmols/g protein. Moreover, the “decline of LIG3 levels” value with A549 cells [2] is on record as “about 50%”. Further, in the data set with A549 cells [3], the “TOM20 immunofluorescence increase above baseline” value was ~25%. Further, in the data set with A549 cells [4], the “rise in γH2AX (nuclear DNA damage)” value was determined as 2 fold. Also, the “maximum ROS (DCF) over baseline” value in the data set on A549 cells [5] (0.6 mM, 48 h) was determined as 30 fold; with A549 cells [5] (3 mM, 24 h) it was 30 fold. The EC50 in the data set with A549 cells [5] (A549, 24 h) was 1600 µM; with A549 cells [5] (A549, 48 h), 340 µM; with A549 cells [10] (Homo sapiens, A549, 24 h of exposure) it was 280 µM. In addition, the “increase of OGG1 content above baseline” value in the data set on A549 cells [6] was 88.3%. Further, the “decline of DRP1 content compared to control” value in the data set on A549 cells [7] is on record as “about 24 ± 0.02%”. The “concentration giving maximum effect on mitochondrial membrane integrity” value in the data set on A549 cells [8] worked out at 3000 µM. In the data set on A549 cells [9], the “concentration giving maximal mtDNA damage” value worked out at 600 µM. In addition, the “maximal mitochondrial ROS signal intensity (MitoSOX)” value in the data set with A549 cells [10] (3 mM) was determined as 1.75 fold.
